Here are results for five compounds from ChEMBL document CHEMBL5518186, “Discovery of the cereblon-recruiting tubulin PROTACs effective in overcoming Taxol resistance in vitro and in vivo” (Eur J Med Chem, 2024).

Structures are written as SMILES. Active and inactive are the calls of the source. The calls are words filed in the database; no cut-off is given here. Bounds are passed on as bounds.

For data set [1], the target named is T1, Estrogen receptor (Homo sapiens) (UniProt P03372).
T1 sequence (whole entry): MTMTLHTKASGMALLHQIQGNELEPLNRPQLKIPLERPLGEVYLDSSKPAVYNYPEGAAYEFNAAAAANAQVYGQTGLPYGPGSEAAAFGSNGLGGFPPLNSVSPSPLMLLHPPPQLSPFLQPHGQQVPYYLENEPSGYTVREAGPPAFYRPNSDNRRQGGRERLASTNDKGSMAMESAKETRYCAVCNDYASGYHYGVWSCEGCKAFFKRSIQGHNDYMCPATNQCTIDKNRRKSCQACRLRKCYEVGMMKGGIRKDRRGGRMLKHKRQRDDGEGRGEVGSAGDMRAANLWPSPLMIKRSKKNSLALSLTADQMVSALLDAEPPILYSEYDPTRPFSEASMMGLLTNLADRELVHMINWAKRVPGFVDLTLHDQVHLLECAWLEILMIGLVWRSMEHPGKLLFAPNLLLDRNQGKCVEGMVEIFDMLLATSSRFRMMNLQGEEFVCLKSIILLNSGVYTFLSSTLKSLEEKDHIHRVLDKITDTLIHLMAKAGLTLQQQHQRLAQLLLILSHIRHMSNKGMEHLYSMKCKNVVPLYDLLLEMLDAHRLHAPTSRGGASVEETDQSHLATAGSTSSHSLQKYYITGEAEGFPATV
Kind of data set: Induction of ER degradation (unknown origin).

Data set [2] has as its target Protein cereblon/Tubulin beta. Kind of data set: (§1) Protac activity at CRBN/beta-tubulin in human A549 cells assessed as reduction in beta-tubulin level incubated for 48 hrs by immunoblotting analysis. Format: cell-based. Background: Immunoblotting shows a protein as a band on a membrane.
Data set [3] deals with T2, Protein cereblon/Tubulin beta (Homo sapiens) (UniProt P68371+Q9H4B7+Q13509+P04350+Q3ZCM7+P07437+Q13885+Q9BVA1+Q9BUF5+Q96SW2+A6NNZ2). The data set is described as §1. Format: cell-based.
For data set [4], the target named is Protein cereblon-alpha tubulin. Kind of data set: (§2) Protac activity at CRBN/alpha-tubulin in human A549 cells assessed as reduction in alpha-tubulin level incubated for 48 hrs by immunoblotting analysis. Format: cell-based.
Data set [5] deals with T3, Protein cereblon-alpha tubulin (Homo sapiens) (UniProt P0DPH7+P68366+Q71U36+P68363+Q9BQE3+Q6PEY2+A6NHL2+Q9NY65+Q96SW2). The data set is described as §2. Format: cell-based.
Data set [6] concerns MCF7. In words: Antiproliferative activity against human MCF7 cells incubated for 72 hrs. The data set is classed as functional, cell-based. The following applies: MCF7, 72 h.
The test system of data set [7] is A549. Kind of data set: Antiproliferative activity against human A549 cells incubated for 72 hrs. The following applies: A549, 72 h. Format: functional, cell-based.
Data set [8] concerns the target T3, Protein cereblon-alpha tubulin (Homo sapiens). In words: Protac activity at CRBN/alpha-tubulin in human A549 cells assessed as reduction in alpha-tubulin level at 0.01 to 1 uM incubated for 48 hrs by immunoblotting analysis. The data set is classed as cell-based. The following applies: dose 0.01-1 µM.
Data set [9] concerns the target T4, Protein cereblon/Tubulin beta-3 chain (Homo sapiens, UniProt Q13509+Q96SW2). In words: Protac activity at CRBN/beta3-tubulin in human A549 cells assessed as reduction in beta3-tubulin level incubated for 48 hrs by immunoblotting analysis. Format: cell-based.
The target in data set [10] is T2, Protein cereblon/Tubulin beta (Homo sapiens). Kind of data set: Protac activity at CRBN/beta-tubulin in human A549 cells assessed as reduction in beta-tubulin level at 0.01 to 1 uM incubated for 48 hrs by immunoblotting analysis. The following applies: dose 0.01-1 µM. The data set is classed as cell-based.
In data set [11] the test system is MGC-803. Kind of data set: Antiproliferative activity against human MGC-803 cells incubated for 72 hrs. The data set is classed as functional, cell-based. The following applies: MGC-803, 72 h.
The target of data set [12] is Protein cereblon/Tubulin beta. In words: (§3) Protac activity at CRBN/beta-tubulin in human A549/Taxol cells assessed as reduction in beta-tubulin level incubated for 48 hrs by immunoblotting analysis. The data set is classed as cell-based.
Data set [13] addresses T2, Protein cereblon/Tubulin beta (Homo sapiens). Described as §3. The data set is classed as cell-based.
Data set [14] deals with U-937. In words: Antiproliferative activity against human U-937 cells incubated for 72 hrs. The data set is classed as functional, cell-based. The following applies: U-937, 72 h.
Data set [15] deals with HepG2. In words: Antiproliferative activity against human HepG2 cells incubated for 72 hrs. The data set is classed as functional, cell-based. The following applies: HepG2, 72 h.
The subject of data set [16] is HeLa. In words: Antiproliferative activity against human HeLa cells incubated for 72 hrs. Format: functional, cell-based.
Data set [17] has as its target T4, Protein cereblon/Tubulin beta-3 chain. In words: Protac activity at CRBN/beta3-tubulin in human A549/Taxol cells assessed as reduction in beta3-tubulin level incubated for 48 hrs by immunoblotting analysis. The data set is classed as cell-based.
Data set [18] has the same target. In words: Protac activity at CRBN/beta3-tubulin in human A549 cells assessed as reduction in beta3-tubulin level at 0.01 to 1 uM incubated for 48 hrs by immunoblotting analysis. Format: cell-based. The following applies: dose 0.01-1 µM.
Target sequence in this assay (Q13509 whole entry, looked up): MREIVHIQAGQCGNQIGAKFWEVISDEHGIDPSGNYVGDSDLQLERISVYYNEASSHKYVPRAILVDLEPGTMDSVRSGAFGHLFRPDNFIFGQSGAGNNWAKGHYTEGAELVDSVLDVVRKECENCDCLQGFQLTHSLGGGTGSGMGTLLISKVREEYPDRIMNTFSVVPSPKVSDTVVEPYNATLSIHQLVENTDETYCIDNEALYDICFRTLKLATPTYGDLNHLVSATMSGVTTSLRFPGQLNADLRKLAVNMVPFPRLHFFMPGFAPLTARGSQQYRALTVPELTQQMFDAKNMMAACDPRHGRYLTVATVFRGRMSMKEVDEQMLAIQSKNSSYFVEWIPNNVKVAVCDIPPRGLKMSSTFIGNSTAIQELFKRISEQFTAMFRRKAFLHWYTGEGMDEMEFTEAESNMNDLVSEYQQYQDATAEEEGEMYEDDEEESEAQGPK
Target sequence in this assay (Q96SW2 whole entry, looked up): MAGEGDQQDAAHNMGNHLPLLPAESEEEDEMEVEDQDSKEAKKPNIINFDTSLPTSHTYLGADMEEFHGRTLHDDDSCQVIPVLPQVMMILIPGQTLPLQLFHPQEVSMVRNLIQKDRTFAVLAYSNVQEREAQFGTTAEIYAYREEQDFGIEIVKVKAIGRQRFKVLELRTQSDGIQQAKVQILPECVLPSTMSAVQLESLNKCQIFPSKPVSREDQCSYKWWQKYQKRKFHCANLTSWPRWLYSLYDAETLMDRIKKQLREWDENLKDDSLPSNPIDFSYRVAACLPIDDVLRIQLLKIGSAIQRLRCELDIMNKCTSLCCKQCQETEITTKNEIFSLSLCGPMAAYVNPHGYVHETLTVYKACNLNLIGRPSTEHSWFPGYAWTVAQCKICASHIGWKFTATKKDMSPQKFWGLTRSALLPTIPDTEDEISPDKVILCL
For data set [19], the target named is Protein cereblon-alpha tubulin. Kind of data set: (§4) Protac activity at CRBN/alpha-tubulin in human A549/Taxol cells assessed as reduction in alpha-tubulin level incubated for 48 hrs by immunoblotting analysis. The data set is classed as cell-based.
The target in data set [20] is T3, Protein cereblon-alpha tubulin (Homo sapiens). The data set is described as §4. Format: cell-based.
Data set [21] has as its system A549/TR. In words: Induction of cell cycle arrest in human A549/Taxol cells assessed as accumulation of cells at G2/M phase at 0.1 uM incubated for 24 hrs by PI staining based flow cytometry analysis (reference value: 17.02%). Format: functional. Background: In flow cytometry, cells or beads pass a laser one at a time.
For data set [22], the system named is A549/TR. In words: Induction of cell cycle arrest in human A549/Taxol cells assessed as accumulation of cells at G0/G1 phase at 0.1 uM incubated for 24 hrs by PI staining based flow cytometry analysis (reference value: 77.86%). Format: functional.
Data set [23] has as its system A549/TR. Kind of data set: Induction of apoptosis in human A549/Taxol cells at 0.1 uM incubated for 48 hrs by Annexin V-FITC/PI staining based flow cytometry analysis. Format: functional.
Data set [24] has as its system A549/TR. Kind of data set: Induction of cell cycle arrest in human A549/Taxol cells assessed as accumulation of cells at S phase at 0.1 uM incubated for 24 hrs by PI staining based flow cytometry analysis (reference value: 2.85%). The data set is classed as functional.
Data set [25] has as its system A549/TR. In words: Antitumor activity against human A549/Taxol cells xenografted in nude mouse assessed as tumor growth inhibition at 10 mg/kg, ip administered once every 2 days for 23 days by Vernier caliper method. Format: functional. The following applies: 552 h, time 23 day, read-out: TGI.
Data set [26] deals with A549/TR. Kind of data set: Induction of apoptosis in human A549/Taxol cells at 1 uM incubated for 48 hrs by Annexin V-FITC/PI staining based flow cytometry analysis. Format: functional.
For data set [27], the system named is A549. In words: Induction of cell cycle arrest in human A549 cells assessed as accumulation of cells at G2/M phase at 0.02 uM incubated for 24 hrs by PI staining based flow cytometry analysis (reference value: 31.86%). Format: functional.
In data set [28] the test system is A549. In words: Antitumor activity against human A549 cells xenografted in nude mouse assessed as decrease in tumor weight at 10 mg/kg, ip administered once every 2 days for 23 days by Vernier caliper method. Format: functional, organism-based. The following applies: time 23.0 day.
A short description of data set [29]: Toxicity in nude mouse xenografted with human A549/Taxol cells assessed as body weight loss at 10 mg/kg, ip administered once every 2 days for 23 days and measured every 3 days. Format: organism-based, A549/TR. The settings on record: in vivo, 552 h, time 23 day. On the technique in general: A xenograft is tissue or cells of one species grown in another, often human tumour cells in immunodeficient mice.

Data set [30] relates to A549. In words: Induction of cell cycle arrest in human A549 cells assessed as accumulation of cells at G0/G1 phase at 0.02 uM incubated for 24 hrs by PI staining based flow cytometry analysis (reference value: 66.75%). The data set is classed as functional.
Data set [31] concerns A549/TR. Kind of data set: Induction of cell cycle arrest in human A549/Taxol cells assessed as accumulation of cells at G2/M phase at 1 uM incubated for 24 hrs by PI staining based flow cytometry analysis (reference value: 17.02%). The data set is classed as functional.
Data set [32] deals with A549. Kind of data set: Induction of cell cycle arrest in human A549 cells assessed as accumulation of cells at S phase at 0.02 uM incubated for 24 hrs by PI staining based flow cytometry analysis (reference value: 2.85%). Format: functional.
Data set [33] deals with A549. Kind of data set: Antitumor activity against human A549 cells xenografted in nude mouse assessed as tumor growth inhibition at 10 mg/kg, ip administered once every 2 days for 23 days by Vernier caliper method. The data set is classed as functional. The settings on record: A549, 552 h, time 23 day, read-out: TGI.
Data set [34] relates to A549/TR. In words: Induction of cell cycle arrest in human A549/Taxol cells assessed as accumulation of cells at G0/G1 phase at 1 uM incubated for 24 hrs by PI staining based flow cytometry analysis (reference value: 77.86%). The data set is classed as functional.
The subject of data set [35] is A549. Kind of data set: Antitumor activity against human A549 cells xenografted in nude mouse assessed as decrease in tumor volume at 10 mg/kg, ip administered once every 2 days for 23 days by Vernier caliper method. Format: functional, organism-based. The following applies: time 23.0 day.
In data set [36] the test system is A549/TR. In words: Induction of cell cycle arrest in human A549/Taxol cells assessed as accumulation of cells at S phase at 1 uM incubated for 24 hrs by PI staining based flow cytometry analysis (reference value: 2.85%). Format: functional.
Data set [37] relates to A549/TR. Kind of data set: Inhibition of cell growth in human A549/Taxol cells incubated for 72 hrs by SRB method. The data set is classed as functional, cell-based.
The nature of data set [38]: Toxicity in nude mouse xenografted with human A549 cells assessed as body weight loss at 10 mg/kg, ip administered once every 2 days for 23 days and measured every 3 days. The data set is classed as organism-based. The settings on record: in vivo, 552 h, time 23 day.

In data set [1], `O=C1CC[C@H](N2Cc3cc(N4CCN(CC5CCN(c6ccc([C@@H]7c8ccc(O)cc8CC[C@@H]7c7ccccc7)cc6)CC5)CC4)ccc3C2=O)C(=O)N1` showed an Activity of less than 89%.
Usually IC50 stands for the concentration that gives 50% inhibition. High values mean a need for much substance, low ones inhibition by little substance. As to `COc1ccc(/C=C\c2cc(OC)c(OC)c(OC)c2)cc1OC(=O)CCCCNc1cccc2c1C(=O)N(C1CCC(=O)NC1=O)C2=O` (centres undefined), the DC50 in [2] is 0.035 µM; in data set [4], 0.883 µM; in [12] it was 0.009 µM; in [17], 0.018 µM; in data set [19] it was 0.105 µM. Moreover, the Activity entry in data set [3], in data set [5], in [9], in data set [13], in data set [17] and in [20] was “Dose-Dependent Effect” each time. Moreover, the 50% inhibitory concentration (IC50) in data set [6] is 0.017 µM; in [7], 0.012 µM; in data set [11], 0.008 µM; in [14], 0.022 µM; in [15], 0.006 µM; in data set [16], 0.023 µM. Besides, the outcome in data set [8], in [10] and in data set [18] was Active.
Take `COc1ccc(/C=C\c2cc(OC)c(OC)c(OC)c2)cc1O` [COMBRETASTATIN A4]: the Activity in data set [21] is given as 64.76%; in data set [22], 21.17%; in data set [23], 26.9%; in data set [24] it was 17.89%. The compound also yielded a half-maximal inhibitory concentration (IC50) in data set [7] of 0.005 µM.
On to `CC(=O)O[C@H]1C(=O)[C@@]2(C)[C@H]([C@H](OC(=O)c3ccccc3)[C@]3(O)C[C@H](OC(=O)[C@H](O)[C@@H](NC(=O)c4ccccc4)c4ccccc4)C(C)=C1C3(C)C)[C@]1(OC(C)=O)CO[C@@H]1C[C@@H]2O` [PACLITAXEL], for which the values for the inhibition in vivo at 10 mg/kg in [25] and in [33] were 52% and 28.5%, respectively. For the same compound, the Activity in [26] is reported as 22.7%; in [27] it was 83.1%; in [29], “Non-Toxic”; in data set [30], 10.8%; in data set [31], 74.23%; in [32] it was 6.1%. In addition, the values for the Activity in [34], in data set [36] and in [38] were 20.43%, 5.77% and “Non-Toxic”, respectively. Further, the result in [28] and in [35] was Active. Besides, in data set [37], inhibition was half-maximal at 1.03 µM (IC50).
As for `COc1ccc(/C=C\c2cc(OC)c(OC)c(OC)c2)cc1OC(=O)CCCCCNc1cccc2c1C(=O)N(C1CCC(=O)NC1=O)C2=O` (centres undefined), the DC50 in data set [2] is 0.165 µM; in data set [9] it was 0.294 µM; in data set [12], 0.052 µM; in data set [19], 0.114 µM. Besides, the Activity result in data set [3], in data set [5], in data set [9], in data set [13], in data set [17] and in data set [20] was “Dose-Dependent Effect” in each case. For the same compound, the IC50 in data set [6] turned out to be 0.017 µM; in data set [7], 0.019 µM; in [11], 0.009 µM; in [14], 0.006 µM; in data set [15], 0.007 µM; in [16] it was 0.023 µM. Further, the result in data set [8], in data set [10] and in [18] was Active.
